According to paper PMC11344821 (Scientific Reports, 2024):
In brackets after ≈: the same amount, converted by molar mass.

Assays:
[1] = Particle size analysis by laser diffraction; details: for Particle size D10 / Particle size D50 / Particle size D90 / Particle size D99 / Volume mean diameter (VMD): laser diffraction, dry dispersion 3 bar, n = 3
Description: Laser diffraction was employed to measure particle size using a Sympatec HELOS/BR particle size analyser equipped with a RODOS dry dispersing system with VIBRI/I feeder (Clausthat-Zellerfield, Germany). Approximately 0.5g of sample was placed on to the VIBRI/L feeder tray and dispersed through a RODOS disperser with 3 bars of pressure. The volume mean diameter (VMD) of each sample was detected on the HELOS/BR set at a measuring range of 0–175 µm. All powders were measured in triplicate (n = 3), and the software calculate the 10% (D10), median (D50), 90% (D90) particle sizes and the volume mean diameter (VMD).
Milled samples were prepared using a Fritsch Pulverisette 7 planetary ball mill (Idar-Oberstein, Germany). Powders were accurately weighed according to the BPR. The samples were transferred into agate vials (45 cm^3 Volume) along with 8 agate balls (10mm diameter). The vials were then sealed with a plastic ring to prevent atmospheric contamination.

[2] = system: Staphylococcus aureus NCTC 10788; assay: Minimum lethal concentration (MLC), sub-culture on TSA plates; assay type: cell-based; details: S. aureus NCTC 10788; tubes with no turbidity plated on TSA, overnight 37 °C; lowest concentration with no colony formation; listed as Control
Description: Overnight cultures of S. aureus were grown by inoculating a bacterial colony in 10 mL sterile TSB, incubated overnight at 37 °C in a shaking incubator. The overnight culture (1 × 10^9 bacterial cells/mL) was 100 folds diluted to achieve a concentration of 1 × 10^7 bacterial cells/mL.
10 sterile tubes were labelled from 1 to 10, followed by aseptic transfer of 5 mL of sterile TSB into each tube. […] 5 mL solution from tube 1 was then aseptically added to 5 mL TSB in tube 2, and thoroughly mixed and vortexed. This process was repeated for tubes 3–8. Tubes 9 and 10 were used as positive and negative controls, respectively. Once the process of dilution was completed, 100 µL from the 100 folds diluted S. aureus overnight culture was aseptically transferred into tunes 1–9, and incubated at 37 °C in a static incubator for 24 h. […] MICs were taken as the lowest concentrations with no turbidity (no visible bacterial growth).
Following this, the contents from the tubes with no turbidity were inoculated on Tryptic Soy Agar (TSA) plates, and incubated overnight at 37 °C in a static incubator.

[3] = cited from earlier work

SMILES: N[C@@H](CCC(=O)O)C(=O)O [Formulation G2, L-glutamic acid]
- Particle size after ball milling relative to original size pre-ball mill ([1]; 15 min, 400 rpm, ball to powder ratio 8): 4%
- Change in particle size in time-trial stability study over 28 days ([1]; day 0, 1, 3, 7, 14, 28, ANOVA, P > 0.05): no significant change in size
- Particle size D10 [1]: 0.54 μm
- Particle size D50 [1]: 1.62 μm
- Particle size D90 [1]: 5.46 μm
- Particle size D99 [1]: 8.31 μm
- Volume mean diameter (VMD) [1]: 2.35 µm

SMILES: N[C@@H](CCC(=O)O)C(=O)O [Formulation G0, L-glutamic acid]
- Particle size D10 [1]: 6.97 μm
- Particle size D50 [1]: 22.56 μm
- Particle size D90 [1]: 48.37 μm
- Particle size D99 [1]: 70.49 μm
- Volume mean diameter (VMD) [1]: 25.45 µm

SMILES: CN[C@H](CC(C)C)C(=O)N[C@H]1C(=O)N[C@@H](CC(N)=O)C(=O)N[C@H]2C(=O)N[C@H]3C(=O)N[C@H](C(=O)N[C@H](C(=O)O)c4cc(O)cc(O)c4-c4cc3ccc4O)[C@H](O)c3ccc(c(Cl)c3)Oc3cc2cc(c3O[C@@H]2O[C@H](CO)[C@@H](O)[C@H](O)[C@H]2O[C@H]2C[C@](C)(N)[C@H](O)[C@H](C)O2)Oc2ccc(cc2Cl)[C@H]1O [vancomycin]
- Volume mean diameter (VMD) [1]: 51.64 µm
- MLC [2]: 6.25 µg/mL (≈ 4.31 µM)
- Drug eliminated primarily through the renal route [3]: 80–90%
- Oral bioavailability (absorbed orally) ([3]; oral route): less than 10%

SMILES: N[C@@H](CCC(=O)O)C(=O)O [Formulation G1, L-glutamic acid]
- Particle size D10 [1]: 0.99 μm
- Particle size D50 [1]: 7.86 μm
- Particle size D90 [1]: 21.15 μm
- Particle size D99 [1]: 33.58 μm
- Volume mean diameter (VMD) [1]: 9.67 µm

SMILES: N[C@@H](CCC(=O)O)C(=O)O [Formulation G3, L-glutamic acid]
- Particle size D10 [1]: 0.64 μm
- Particle size D50 [1]: 3.08 μm
- Particle size D90 [1]: 11.63 μm
- Particle size D99 [1]: 17.01 μm
- Volume mean diameter (VMD) [1]: 4.75 µm
